Test results: US10696651B2, “Heterocyclic compound” (Takeda Pharmaceutical Company Limited, priority 2016, dated 2020)

Tests used:
[1] = tested on: human acute lymphoblastic leukemia cell line CCRF-CEM; assay: In vitro tumor proliferation inhibitory assay with combined use of asparaginase; format: cell-based; conditions: compound concentration 100 nM, L-asparaginase 0.1 U/mL, 72 hr, read-out: in vitro cell proliferation inhibitory rate (%)
Protocol: A cell suspension (40 μL) (5000 cells/well) of human acute lymphoblastic leukemia cell line CCRF-CEM obtained from ATCC (American Type Culture Collection) was seeded on a 384 well plate using RPMI1640 medium. The seeded cells were incubated (37° C., 5% CO2) overnight to 24 hr at the longest. L-asparaginase (Sigma-Aldrich Co. LLC.) was dissolved in PBS and treated in each well to a final concentration of 0.1 U/mL. Furthermore, each test compound was dissolved (10 mM) in DMSO, delivered to wells by using TECAN HP D300 (TECAN), and the plate was incubated for 72 hr (37° C., 5% CO2). A well without addition of compound was treated similarly as a control group. […] After incubation for 10 min, cell proliferation inhibitory rate was measured by the amount of ATP which is a cell viability marker.
Luminescence of cells showing ATP amount was measured using ARVO MX (PerkinElmer). Based on the luminescence value of the control group without addition of test compound solution and the treatment group with addition of test compound, the cell proliferation inhibitory rate (%) of the test compound at a compound concentration of 100 nM was calculated by the following formula and the results thereof are shown in Table 7. Inhibitory rate (%)=(1−(luminescence value of treatment group)÷(luminescence value of control group))×100

[2] = tested on: ATF4 expression in human acute lymphoblastic leukemia cell line CCRF-CEM; assay: In vitro ATF4 expression suppression assay (Western blot) in the presence of L-asparaginase; format: cell-based; conditions: compound concentration 400 nM, L-asparaginase 0.1 U/mL, 4 hr
Protocol: A cell suspension (40 μL) (500000 cells/well) of human acute lymphoblastic leukemia cell line CCRF-CEM obtained from ATCC (American Type Culture Collection) was seeded on a 12 well plate using RPMI1640 medium. The seeded cells were incubated (37° C., 5% CO2) overnight to 24 hr at the longest. L-asparaginase (Sigma-Aldrich Co. LLC.) was dissolved in PBS and treated in each well to a final concentration of 0.1 U/mL. Furthermore, each test compound was dissolved (10 mM) in DMSO, delivered to wells by using TECAN HP D300 (TECAN), and the plate was incubated for 4 hr (37° C., 5% CO2). A well without addition of compound was treated similarly as a control group. […]
Protein extract solution was subjected to protein quantification with BCA Protein Assay Kit (Thermo Scientific), electrophoresed on 7.5-15% SDS-PAGE gel (DRC), and protein in the gel was transferred to PVDF membrane. […] Thereafter, chemiluminescence was performed using ImmunoStar LD (Wako Pure Chemical Industries, Ltd.), and luminescence intensity was measured by LAS-3000 image analyzer (Fuji Film Co., Ltd.). Furthermore, the expression level of ATF4 was digitized by quantifying the luminescence intensity using Multi Gauge Ver. […]

Nc1ncc(C#Cc2c(F)ccc(NS(=O)(=O)c3cc(Cl)cc(CO)c3Cl)c2F)cn1 [Example 4, N-(3-((2-aminopyrimidin-5-yl)ethynyl)-2,4-difluorophenyl)-2,5-dichloro-3-(hydroxymethyl)benzenesulfonamide]
inhibition at 0.1 µM [1]: 89%
in vitro ATF4 expression inhibition ratio (%) [2]: 97%

COc1ncc(Cl)cc1S(=O)(=O)Nc1ccc(F)c(C#Cc2cnc(N)nc2)c1F [Example 7, N-(3-((2-aminopyrimidin-5-yl)ethynyl)-2,4-difluorophenyl)-5-chloro-2-methoxypyridine-3-sulfonamide]
inhibition at 0.1 µM [1]: 90%
in vitro ATF4 expression inhibition ratio (%) [2]: 97%
